Laboratory results as given in ChEMBL document CHEMBL3044549, “Colchicine and its various physicochemical and biological aspects” (Med Chem Res, 2013).

How the values were obtained:
[1] = Renal clearance in healthy Homo sapiens (human); format: ADME, organism-based, Kidney; conditions: in vivo
[2] = Volume of distribution in Homo sapiens (human); format: ADME, organism-based; conditions: in vivo
[3] = Oral bioavailability in older Homo sapiens (human) individuals at 1 mg; format: ADME, organism-based; conditions: in vivo
[4] = Elimination half life in healthy Homo sapiens (human); format: ADME, organism-based; conditions: in vivo, read-out: beta t1/2 (converted)
[5] = Oral bioavailability in healthy Homo sapiens (human) at 1 mg; format: ADME, organism-based; conditions: in vivo
Homo sapiens = organism: Homo sapiens; assay: Distribution half life in Homo sapiens (human); format: ADME, organism-based; conditions: in vivo

COc1cc2c(c(OC)c1OC)-c1ccc(OC)c(=O)cc1[C@@H](NC(C)=O)CC2 [COLCHICINE]
CL renal [1]: 66.7 mL/min
Vd [2]: 7 L/kg
bioavailability [3]: 45%
half-life [4]: 14 h
bioavailability [5]: 45%
alphat1/2 (Homo sapiens): 1 h
